Test system: NHBE cells
Experiment: Biolog metabolic array: substrate use by NHBE cells with or without CA09 infection
Format: cell-based, human
Conditions: for Substrate use, 590 nm absorbance normalized to zero hour, 0 hr: Biolog PMM2, 0 hr; for Substrate use, 590 nm absorbance normalized to zero hour, 1 hr: Biolog PMM2, 1 hr; for Substrate use, 590 nm absorbance normalized to zero hour, 5 hr: Biolog PMM2, 5 hr; for Substrate use, 590 nm absorbance normalized to zero hour, 7 hr: Biolog PMM2, 7 hr
[1] = Control (uninfected) NHBE cells
[2] = Virus (CA09-infected NHBE cells, MOI 1)
[3] = Virus: CA09-infected NHBE cells, MOI 1, Biolog PMM2

With `OC[C@H]1O[C@@H](O[C@H]2[C@H](O)[C@@H](O)[C@@H](O)O[C@@H]2CO)[C@H](O)[C@@H](O)[C@H]1O` [a-D-Lactose] the “590 nm absorbance normalized to zero hour (substrate use), 0 hr” value [1] was 1.00, the “590 nm absorbance normalized to zero hour (substrate use), 1 hr” value [1] was 0.44 and the “590 nm absorbance normalized to zero hour (substrate use), 2 hr” value (from here on “590 nm absorbance normalized … 2 hr”) [1] was 0.58. For the same molecule, the “590 nm absorbance normalized to zero hour (substrate use), 3 hr” value (from here on “590 nm absorbance normalized … 3 hr”) [1] was 0.65, the “590 nm absorbance normalized to zero hour (substrate use), 4 hr” value (from here on “590 nm absorbance normalized … 4 hr”) [1] was 0.69 and the “590 nm absorbance normalized to zero hour (substrate use), 6 hr” value (from here on “590 nm absorbance normalized … 6 hr”) [1] was 0.63. For the same molecule, the “590 nm absorbance normalized to zero hour (substrate use), 8 hr” value (from here on “590 nm absorbance normalized … 8 hr”) [1] was 0.94, the “590 nm absorbance normalized to zero hour (substrate use), 9 hr” value (from here on “590 nm absorbance normalized … 9 hr”) [1] was 1.01 and the “590 nm absorbance normalized to zero hour (substrate use), 10 hr” value (from here on “590 nm absorbance normalized … 10 hr”) [1] was 1.02. The “590 nm absorbance normalized to zero hour (substrate use), 11 hr” value (shortened to “590 nm absorbance normalized … 11 hr”) [1] was 0.92, the “Substrate use, 590 nm absorbance normalized to zero hour, 0 hr” value [1] was 1.00 and the “Substrate use, 590 nm absorbance normalized to zero hour, 1 hr” value [1] was 0.44. The “Substrate use, 590 nm absorbance normalized to zero hour, 5 hr” value [1] was 0.82, the “Substrate use, 590 nm absorbance normalized to zero hour, 7 hr” value [1] was 0.88 and the “590 nm absorbance normalized to zero hour (substrate use), 0 hr” value [2] was 1.00. The “590 nm absorbance normalized to zero hour (substrate use), 1 hr” value [2] was 0.17, the “590 nm absorbance normalized … 2 hr” value [2] was 0.22 and the “590 nm absorbance normalized … 3 hr” value [2] was 0.26. For the same molecule, the “590 nm absorbance normalized … 4 hr” value [2] was 0.28, the “590 nm absorbance normalized to zero hour (substrate use), 5 hr” value [2] was 0.33 and the “590 nm absorbance normalized … 6 hr” value [2] was 0.35. The “590 nm absorbance normalized to zero hour (substrate use), 7 hr” value [2] was 0.37, the “590 nm absorbance normalized … 8 hr” value [2] was 0.39 and the “590 nm absorbance normalized … 9 hr” value [2] was 0.42. The “590 nm absorbance normalized … 10 hr” value [2] was 0.41, the “590 nm absorbance normalized … 11 hr” value [2] was 0.39 and the “590 nm absorbance normalized to zero hour (substrate use), 0 hr” value [3] was 1.00. The “590 nm absorbance normalized to zero hour (substrate use), 1 hr” value [3] was 0.17, the “590 nm absorbance normalized … 2 hr” value [3] was 0.22 and the “590 nm absorbance normalized … 3 hr” value [3] was 0.26. The “590 nm absorbance normalized … 4 hr” value [3] was 0.28, the “590 nm absorbance normalized to zero hour (substrate use), 5 hr” value [3] was 0.33 and the “590 nm absorbance normalized … 6 hr” value [3] was 0.35. For the same molecule, the “590 nm absorbance normalized to zero hour (substrate use), 7 hr” value [3] was 0.37, the “590 nm absorbance normalized … 8 hr” value [3] was 0.39 and the “590 nm absorbance normalized … 9 hr” value [3] was 0.42. For the same molecule, the “590 nm absorbance normalized … 10 hr” value [3] was 0.41 and the “590 nm absorbance normalized … 11 hr” value [3] was 0.39.
`CCC(=O)C(=O)O` [a-Keto-Butyric Acid] was tested, and the “590 nm absorbance normalized to zero hour (substrate use), 0 hr” value [1] was 1.00, the “590 nm absorbance normalized to zero hour (substrate use), 1 hr” value [1] was 1.10 and the “590 nm absorbance normalized … 2 hr” value [1] was 1.17. The “590 nm absorbance normalized … 3 hr” value [1] was 1.24, the “590 nm absorbance normalized … 4 hr” value [1] was 1.25 and the “590 nm absorbance normalized … 6 hr” value [1] was 1.49. The “590 nm absorbance normalized … 8 hr” value [1] was 1.34, the “590 nm absorbance normalized … 9 hr” value [1] was 1.36 and the “590 nm absorbance normalized … 10 hr” value [1] was 1.37. The “590 nm absorbance normalized … 11 hr” value [1] was 1.39, the “Substrate use, 590 nm absorbance normalized to zero hour, 0 hr” value [1] was 1.00 and the “Substrate use, 590 nm absorbance normalized to zero hour, 1 hr” value [1] was 1.10. The “Substrate use, 590 nm absorbance normalized to zero hour, 5 hr” value [1] was 1.28, the “Substrate use, 590 nm absorbance normalized to zero hour, 7 hr” value [1] was 1.33 and the “590 nm absorbance normalized to zero hour (substrate use), 0 hr” value [2] was 1.00. For the same molecule, the “590 nm absorbance normalized to zero hour (substrate use), 1 hr” value [2] was 0.28, the “590 nm absorbance normalized … 2 hr” value [2] was 0.29 and the “590 nm absorbance normalized … 3 hr” value [2] was 0.30. The “590 nm absorbance normalized … 4 hr” value [2] was 0.31, the “590 nm absorbance normalized to zero hour (substrate use), 5 hr” value [2] was 0.32 and the “590 nm absorbance normalized … 6 hr” value [2] was 0.32. The “590 nm absorbance normalized to zero hour (substrate use), 7 hr” value [2] was 0.33, the “590 nm absorbance normalized … 8 hr” value [2] was 0.33 and the “590 nm absorbance normalized … 9 hr” value [2] was 0.34. The “590 nm absorbance normalized … 10 hr” value [2] was 0.34, the “590 nm absorbance normalized … 11 hr” value [2] was 0.34 and the “590 nm absorbance normalized to zero hour (substrate use), 0 hr” value [3] was 1.00. For the same molecule, the “590 nm absorbance normalized to zero hour (substrate use), 1 hr” value [3] was 0.28, the “590 nm absorbance normalized … 2 hr” value [3] was 0.29 and the “590 nm absorbance normalized … 3 hr” value [3] was 0.30. The “590 nm absorbance normalized … 4 hr” value [3] was 0.31, the “590 nm absorbance normalized to zero hour (substrate use), 5 hr” value [3] was 0.32 and the “590 nm absorbance normalized … 6 hr” value [3] was 0.32. The “590 nm absorbance normalized to zero hour (substrate use), 7 hr” value [3] was 0.33, the “590 nm absorbance normalized … 8 hr” value [3] was 0.33 and the “590 nm absorbance normalized … 9 hr” value [3] was 0.34. The “590 nm absorbance normalized … 10 hr” value [3] was 0.34 and the “590 nm absorbance normalized … 11 hr” value [3] was 0.34.
For `O=C(O)CCC(=O)C(=O)O` [a-Keto-Glutaric Acid], the “590 nm absorbance normalized to zero hour (substrate use), 0 hr” value [1] was 1.00, the “590 nm absorbance normalized to zero hour (substrate use), 1 hr” value [1] was 1.29 and the “590 nm absorbance normalized … 2 hr” value [1] was 1.54. For the same molecule, the “590 nm absorbance normalized … 3 hr” value [1] was 1.40, the “590 nm absorbance normalized … 4 hr” value [1] was 1.45 and the “590 nm absorbance normalized … 6 hr” value [1] was 1.98. For the same molecule, the “590 nm absorbance normalized … 8 hr” value [1] was 1.69, the “590 nm absorbance normalized … 9 hr” value [1] was 1.80 and the “590 nm absorbance normalized … 10 hr” value [1] was 1.93. The “590 nm absorbance normalized … 11 hr” value [1] was 2.00, the “Substrate use, 590 nm absorbance normalized to zero hour, 0 hr” value [1] was 1.00 and the “Substrate use, 590 nm absorbance normalized to zero hour, 1 hr” value [1] was 1.29. The “Substrate use, 590 nm absorbance normalized to zero hour, 5 hr” value [1] was 1.52, the “Substrate use, 590 nm absorbance normalized to zero hour, 7 hr” value [1] was 1.61 and the “590 nm absorbance normalized to zero hour (substrate use), 0 hr” value [2] was 1.00. The “590 nm absorbance normalized to zero hour (substrate use), 1 hr” value [2] was 0.28, the “590 nm absorbance normalized … 2 hr” value [2] was 0.37 and the “590 nm absorbance normalized … 3 hr” value [2] was 0.45. For the same molecule, the “590 nm absorbance normalized … 4 hr” value [2] was 0.46, the “590 nm absorbance normalized to zero hour (substrate use), 5 hr” value [2] was 0.51 and the “590 nm absorbance normalized … 6 hr” value [2] was 0.54. The “590 nm absorbance normalized to zero hour (substrate use), 7 hr” value [2] was 0.56, the “590 nm absorbance normalized … 8 hr” value [2] was 0.58 and the “590 nm absorbance normalized … 9 hr” value [2] was 0.64. The “590 nm absorbance normalized … 10 hr” value [2] was 0.64, the “590 nm absorbance normalized … 11 hr” value [2] was 0.69 and the “590 nm absorbance normalized to zero hour (substrate use), 0 hr” value [3] was 1.00. The “590 nm absorbance normalized to zero hour (substrate use), 1 hr” value [3] was 0.28, the “590 nm absorbance normalized … 2 hr” value [3] was 0.37 and the “590 nm absorbance normalized … 3 hr” value [3] was 0.45. The “590 nm absorbance normalized … 4 hr” value [3] was 0.46, the “590 nm absorbance normalized to zero hour (substrate use), 5 hr” value [3] was 0.51 and the “590 nm absorbance normalized … 6 hr” value [3] was 0.54. For the same molecule, the “590 nm absorbance normalized to zero hour (substrate use), 7 hr” value [3] was 0.56, the “590 nm absorbance normalized … 8 hr” value [3] was 0.58 and the “590 nm absorbance normalized … 9 hr” value [3] was 0.64. For the same molecule, the “590 nm absorbance normalized … 10 hr” value [3] was 0.64 and the “590 nm absorbance normalized … 11 hr” value [3] was 0.69.

— US11083725B2 (priority 2014, dated 2021)
